Measured values from ChEMBL document CHEMBL4004867, “Novel antioxidants' synthesis and their anti-oxidative activity through activating Nrf2 signaling pathway” (2017).
The source made the active and inactive calls. The rule behind the calls is not given here.

How the values were obtained:
PC-12 [1] = assay: Cytoprotective activity against H2O2-induced oxidative damage in rat PC12 cells assessed as late apoptotic cells at 5 uM preincubated for 24 hrs followed by H2O2 addition measured after 24 hrs by annexin V-FITC/propidium iodide staining-based flow cytometric method (reference value: 10.7%); assay type: functional
PC-12 [2] = assay: Cytoprotective activity against H2O2-induced oxidative damage in rat PC12 cells assessed as late apoptotic cells at 10 uM preincubated for 24 hrs followed by annexin V-FITC/propidium iodide staining-based flow cytometric method (reference value: 10.7%); assay type: functional
PC-12 [3] = assay: Cytoprotective activity against H2O2-induced oxidative damage in rat PC12 cells assessed as early apoptotic cells at 2.5 uM preincubated for 24 hrs followed by H2O2 addition measured after 24 hrs by annexin V-FITC/propidium iodide staining-based flow cytometric method (reference value: 0.558%); assay type: functional
PC-12 [4] = assay: Cytoprotective activity against H2O2-induced oxidative damage in rat PC12 cells assessed as necrotic cells at 10 uM preincubated for 24 hrs followed by H2O2 addition measured after 24 hrs by annexin V-FITC/propidium iodide staining-based flow cytometric method (reference value: 3.47%); assay type: functional
PC-12 [5] = assay: Cytoprotective activity against H2O2-induced oxidative damage in rat PC12 cells assessed as increase in cell viability preincubated for 24 hrs followed by H2O2 addition measured after 24 hrs by MTT assay; assay type: functional, cell-based
PC-12 [6] = assay: Cytoprotective activity against H2O2-induced oxidative damage in rat PC12 cells assessed as viable cells at 10 uM preincubated for 24 hrs followed by H2O2 addition measured after 24 hrs by annexin V-FITC/propidium iodide staining-based flow cytometric method (reference value: 85.2%); assay type: functional; conditions: read-out: Activity
PC-12 [7] = assay: Cytoprotective activity against H2O2-induced oxidative damage in rat PC12 cells assessed as early apoptotic cells at 5 uM preincubated for 24 hrs followed by H2O2 addition measured after 24 hrs by annexin V-FITC/propidium iodide staining-based flow cytometric method (reference value: 0.558%); assay type: functional
PC-12 [8] = assay: Cytoprotective activity against H2O2-induced oxidative damage in rat PC12 cells assessed as necrotic cells at 2.5 uM preincubated for 24 hrs followed by H2O2 addition measured after 24 hrs by annexin V-FITC/propidium iodide staining-based flow cytometric method (reference value: 3.47%); assay type: functional
PC-12 [9] = assay: Cytoprotective activity against H2O2-induced oxidative damage in rat PC12 cells assessed as viable cells at 5 uM preincubated for 24 hrs followed by H2O2 addition measured after 24 hrs by annexin V-FITC/propidium iodide staining-based flow cytometric method (reference value: 85.2%); assay type: functional; conditions: read-out: Activity
[10] = target: T1, Nuclear factor erythroid 2-related factor 2 (Rattus norvegicus) (UniProt O54968); assay: Induction of Nrf2 activity in rat PC12 cells assessed as upregulation of GCLC mRNA levels at 2.5 to 10 uM after 24 hrs by RT-PCR method; assay type: cell-based
T1 sequence (whole entry): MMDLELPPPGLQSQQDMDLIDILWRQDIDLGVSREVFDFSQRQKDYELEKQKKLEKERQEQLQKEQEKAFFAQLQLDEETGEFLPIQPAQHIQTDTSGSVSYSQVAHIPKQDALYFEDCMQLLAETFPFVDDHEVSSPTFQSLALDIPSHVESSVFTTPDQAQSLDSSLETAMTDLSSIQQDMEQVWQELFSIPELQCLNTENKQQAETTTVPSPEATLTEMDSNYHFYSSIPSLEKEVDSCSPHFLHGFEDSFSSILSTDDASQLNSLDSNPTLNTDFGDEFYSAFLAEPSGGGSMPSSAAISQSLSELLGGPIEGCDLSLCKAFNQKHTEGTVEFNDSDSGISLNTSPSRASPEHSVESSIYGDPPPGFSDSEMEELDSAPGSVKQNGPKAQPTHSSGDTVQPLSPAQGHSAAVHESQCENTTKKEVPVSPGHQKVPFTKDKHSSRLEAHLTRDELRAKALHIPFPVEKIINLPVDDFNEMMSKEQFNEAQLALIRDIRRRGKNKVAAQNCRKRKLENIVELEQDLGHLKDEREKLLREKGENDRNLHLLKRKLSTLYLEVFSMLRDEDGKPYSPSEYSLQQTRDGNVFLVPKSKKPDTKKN

[11] = Antioxidant activity assessed as DPPH radical scavenging activity relative to tBHQ; assay type: functional
PC-12 [12] = assay: Cytoprotective activity against H2O2-induced oxidative damage in rat PC12 cells assessed as late apoptotic cells at 2.5 uM preincubated for 24 hrs followed by H2O2 addition measured after 24 hrs by annexin V-FITC/propidium iodide staining-based flow cytometric method (reference value: 10.7%); assay type: functional
PC-12 [13] = assay: Cytoprotective activity against H2O2-induced oxidative damage in rat PC12 cells preincubated for 24 hrs followed by H2O2 addition measured after 24 hrs by annexin V-FITC/propidium iodide staining-based flow cytometric method; assay type: functional, cell-based
PC-12 [14] = assay: Cytoprotective activity against H2O2-induced oxidative damage in rat PC12 cells assessed as increase in cell viability at 10 uM preincubated for 24 hrs followed by H2O2 addition measured after 24 hrs in presence of GCLC inhibitor BSO by MTT assay; assay type: functional, cell-based
PC-12 [15] = assay: Cytoprotective activity against H2O2-induced oxidative damage in rat PC12 cells assessed as necrotic cells at 5 uM preincubated for 24 hrs followed by H2O2 addition measured after 24 hrs by annexin V-FITC/propidium iodide staining-based flow cytometric method (reference value: 3.47%); assay type: functional
PC-12 [16] = assay: Cytoprotective activity against H2O2-induced oxidative damage in rat PC12 cells assessed as early apoptotic cells at 10 uM preincubated for 24 hrs followed by H2O2 addition measured after 24 hrs by annexin V-FITC/propidium iodide staining-based flow cytometric method (reference value: 0.558%); assay type: functional
[17] = target: T1, Nuclear factor erythroid 2-related factor 2 (Rattus norvegicus); assay: Induction of Nrf2 activity in rat PC12 cells assessed as upregulation of GCLC levels after 24 hrs by Western blot method; assay type: cell-based
[18] = target: T1, Nuclear factor erythroid 2-related factor 2 (Rattus norvegicus); assay: Induction of Nrf2 nuclear translocation in rat PC12 cells at 10 uM after 6 hrs by DAPI staining-based immunofluorescence method; assay type: cell-based
PC-12 [19] = assay: Cytoprotective activity against H2O2-induced oxidative damage in rat PC12 cells assessed as viable cells at 2.5 uM preincubated for 24 hrs followed by H2O2 addition measured after 24 hrs by annexin V-FITC/propidium iodide staining-based flow cytometric method (reference value: 85.2%); assay type: functional; conditions: read-out: Activity
[20] = Antioxidant activity assessed as DPPH radical scavenging activity relative to edaravone; assay type: functional

For `CCC(=O)N1NC(c2cc(OC)c(OC)c(OC)c2)C2=C1CCC2` (stereo not drawn), the Activity (PC-12 [1]) was 2.44%, the Activity (PC-12 [2]) was 2.27% and the Activity (PC-12 [3]) was 1.46%. The Activity (PC-12 [4]) was 2.96%, the Activity (PC-12 [5]) was “Dose-dependent effect” and the viability at 10 µM (PC-12 [6]) was 93.1%. For the same molecule, the Activity (PC-12 [7]) was 2.64%, the Activity (PC-12 [8]) was 1.69% and the viability at 5 µM (PC-12 [9]) was 93.5%. For the same molecule, the Activity [10] was “Active”, the fold change (FC) [11] was 0.5 and the Activity (PC-12 [12]) was 2.65%. For the same molecule, the Activity (PC-12 [13]) was “Dose-dependent effect”, the Activity (PC-12 [14]) was “inactive” and the Activity (PC-12 [15]) was 1.46%. For the same molecule, the Activity (PC-12 [16]) was 1.64%, the Activity [17] was “Dose-dependent effect” and the Activity [18] was “Active”. The viability at 2.5 µM (PC-12 [19]) was 94.2% and the fold change (FC) [20] was 0.5.
For `CC(C)(C)c1cc(O)ccc1O` [E319], the Activity (PC-12 [2]) was 0.882%, the Activity (PC-12 [4]) was 0.882% and the viability at 10 µM (PC-12 [6]) was 97.1%. For the same molecule, the Activity (PC-12 [16]) was 1.1%.
Molecule `CC1=NN(c2ccccc2)C(=O)C1` [EDARAVONE] has an Activity (PC-12 [2]) of 1.92%, an Activity (PC-12 [4]) of 1.85% and a viability at 10 µM (PC-12 [6]) of 95.1%. For the same molecule, the Activity (PC-12 [16]) was 1.17%.
